Where two headings read alike, the source gives them in different places.
Legend:
VCaP cells = test: Cellular growth inhibition assay for VCaP cells (CellTiter-Glo, 72 hours); assay type: cell-based, human
How it was run: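 Luminescent viability signal after 72 h of compound exposure gave GI50 values by four-parameter nonlinear regression. Compounds were added in 0.5% DMSO to cells plated 24 h earlier at 5000/well in DMEM containing 10% FBS.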

[1] = system: T-Rex 293 cell line SC3 cells having increased expression of androgen receptor protein due to exposure to doxycycline; test: Cellular growth inhibition assay, T-Rex 293 SC3 cells with doxycycline (CellTiter-Glo, 72 hours); assay type: cell-based; settings: T-Rex 293 SC3 cells with increased androgen receptor expression due to doxycycline (10 ng/mL)
How it was run: (§1)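 Growth inhibition is measured in an inducible AR-expressing T-Rex 293 clone, SC3, cultured with or without 10 ng/mL doxycycline in hormone-depleted medium. Test compounds are applied for 72 hours. GI50 values derive from CellTiter-Glo 2.0 signal fitted by four-parameter regression.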

[2] = system: T-Rex 293 cell line SC3 cells lacking increased expression of androgen receptor protein; test: Cellular growth inhibition assay, T-Rex 293 SC3 cells without doxycycline (CellTiter-Glo, 72 hours); assay type: cell-based; settings: T-Rex 293 cell line SC3 cells not exposed to doxycycline (lacking increased androgen receptor expression)
How it was run: as §1

| SMILES | GI50 (VCaP cells) [nM] | GI50 (VCaP cells; Homo sapiens, VCaP, 72 h) [nM] | GI50 [1] [nM] | GI50 [2] [nM] | GI50 ([1]; 72 h) [nM] | GI50 ([2]; 72 h) [nM] |
| --- | --- | --- | --- | --- | --- | --- |
| Cc1sc2c(c1C)C(c1ccc(N3CC(C4CCN(c5ccc(C(=O)N[C@H]6CC[C@H](Oc7ccc(C#N)c(Cl)c7)CC6)nn5)C4)C3)cc1)=N[C@@H](C)c1nnc(C)n1-2 (stereo partly drawn) [I-556] | < 500 | – | < 500 | < 500 | – | – |
| Cc1sc2c(c1C)C(c1ccc(COC3CCC4(C3)CN(c3ccc(C(=O)N[C@H]5CC[C@H](Oc6ccc(C#N)c(Cl)c6)CC5)nn3)CCO4)cc1)=N[C@@H](C)c1nnc(C)n1-2 (stereo partly drawn) [I-557] | – | < 500 | – | < 500 | < 500 | – |
| Cc1sc2c(c1C)C(c1ccc(COC3CCC4(C3)CN(c3ccc(C(=O)N[C@H]5CC[C@H](Oc6ccc(C#N)c(Cl)c6)CC5)nn3)CCO4)cc1)=N[C@@H](C)c1nnc(C)n1-2 (stereo partly drawn) [I-558] | < 500 | – | < 500 | < 500 | – | – |
| Cc1sc2c(c1C)C(c1ccc(COC3CCC4(C3)CN(c3ccc(C(=O)N[C@H]5CC[C@H](Oc6ccc(C#N)c(Cl)c6)CC5)nn3)CCO4)cc1)=N[C@@H](C)c1nnc(C)n1-2 (stereo partly drawn) [I-559] | < 500 | – | < 500 | < 500 | – | – |
| Cc1sc2c(c1C)C(c1ccc(C3CN(C4CCN(c5ccc(C(=O)N[C@H]6CC[C@H](Oc7ccc(C#N)c(Cl)c7)CC6)nn5)CC4)C3)cc1)=N[C@@H](C)c1nnc(C)n1-2 [I-560] | – | 1500 to 3000 | – | – | < 500 | < 500 |
| Cc1sc2c(c1C)C(c1ccc(OCC3CC4(CCCN(c5ccc(C(=O)N[C@H]6CC[C@H](Oc7ccc(C#N)c(Cl)c7)CC6)nn5)C4)C3)cn1)=NC1(CC1)c1nnc(C)n1-2 (stereo partly drawn) [I-561] | > 3000 | – | – | 500 to 1500 | < 500 | – |
| Cc1sc2c(c1C)C(c1ccc(N3CC(CC4CCCN(c5ccc(C(=O)N[C@H]6CC[C@H](Oc7ccc(C#N)c(Cl)c7)CC6)nn5)C4)C3)cc1)=NC1(CC1)c1nnc(C)n1-2 (stereo partly drawn) [I-562] | > 3000 | – | < 500 | – | – | < 500 |
| Cc1sc2c(c1C)C(c1ccc(N3CCC4CN(c5ccc(C(=O)N[C@H]6CC[C@H](Oc7ccc(C#N)c(Cl)c7)CC6)nn5)CCC4C3)cc1)=NC1(CC1)c1nnc(C)n1-2 (stereo partly drawn) [I-563] | 500 to 1500 | – | < 500 | – | – | < 500 |
| Cc1sc2c(c1C)C(c1ccc(N3CCC4CN(c5ccc(C(=O)N[C@H]6CC[C@H](Oc7ccc(C#N)c(Cl)c7)CC6)nn5)CCC4C3)cc1)=NC1(CC1)c1nnc(C)n1-2 (stereo partly drawn) [I-564] | > 3000 | – | < 500 | 500 to 1500 | – | – |
| Cc1sc2c(c1C)C(c1ccc(N3CCC4CN(c5ccc(C(=O)N[C@H]6CC[C@H](Oc7ccc(C#N)c(Cl)c7)CC6)nn5)CCC4C3)cc1)=NC1(CC1)c1nnc(C)n1-2 (stereo partly drawn) [I-565] | > 3000 | – | < 500 | < 500 | – | – |
| Cc1sc2c(c1C)C(c1ccc(C3CC(N4CCN(c5ccc(C(=O)N[C@H]6CC[C@H](Oc7ccc(C#N)c(Cl)c7)CC6)nn5)CC4)C3)cc1)=NC1(CC1)c1nnc(C)n1-2 (stereo partly drawn) [I-573] | – | < 500 | – | – | < 500 | < 500 |
| Cc1sc2c(c1C)C(c1ccc(C3CCC4(CCN(c5ccc(C(=O)N[C@H]6CC[C@H](Oc7ccc(C#N)c(Cl)c7)CC6)nn5)CC4)C3)nc1)=N[C@@H](C)c1nnc(C)n1-2 (stereo partly drawn) [I-575] | > 3000 | – | < 500 | – | – | < 500 |
| Cc1sc2c(c1C)C(c1ccc(N3CC(CC4CCCN(c5ccc(C(=O)N[C@H]6CC[C@H](Oc7ccc(C#N)c(Cl)c7)CC6)nn5)C4)C3)cc1)=N[C@@H](C)c1nnc(C)n1-2 (stereo partly drawn) [I-576] | – | < 500 | – | – | < 500 | < 500 |
| Cc1sc2c(c1C)C(c1ccc(N3CC(CC4CCCN(c5ccc(C(=O)N[C@H]6CC[C@H](Oc7ccc(C#N)c(Cl)c7)CC6)nn5)C4)C3)cc1)=N[C@@H](C)c1nnc(C)n1-2 (stereo partly drawn) [I-577] | 500 to 1500 | – | < 500 | < 500 | – | – |
| Cc1sc2c(c1C)C(c1ccc(COC3CCC4(C3)CN(c3ccc(C(=O)N[C@H]5CC[C@H](Oc6ccc(C#N)c(Cl)c6)CC5)nn3)CCO4)cc1)=N[C@@H](C)c1nnc(C)n1-2 (stereo partly drawn) [I-586] | 500 to 1500 | – | < 500 | – | – | < 500 |
| Cc1sc2c(c1C)C(c1ccc(OC3CN(C(C)(C)C4CCN(c5ccc(C(=O)N[C@H]6CC[C@H](Oc7ccc(C#N)c(Cl)c7)CC6)nn5)CC4)C3)cc1)=N[C@@H](C)c1nnc(C)n1-2 [I-587] | – | 1500 to 3000 | – | – | < 500 | < 500 |
| Cc1sc2c(c1C)C(c1ccc(C3CC(N4CCN(c5ccc(C(=O)N[C@H]6CC[C@H](Oc7ccc(C#N)c(Cl)c7)CC6)nn5)CC4)C3)cc1)=N[C@@H](C)c1nnc(C)n1-2 (stereo partly drawn) [I-589] | – | < 500 | – | – | < 500 | < 500 |
| Cc1sc2c(c1C)C(c1ccc(C3CCC4(CC3)CCN(c3ccc(C(=O)N[C@H]5CC[C@H](Oc6ccc(C#N)c(Cl)c6)CC5)nn3)CC4)cc1)=N[C@@H](C)c1nnc(C)n1-2 [I-590] | – | > 3000 | – | – | < 500 | < 500 |

The next lines start with results.

| GI50 (VCaP cells) [nM] | GI50 (VCaP cells; Homo sapiens, VCaP, 72 h) [nM] | SMILES | GI50 [1] [nM] | GI50 [2] [nM] | GI50 ([1]; 72 h) [nM] | GI50 ([2]; 72 h) [nM] |
| --- | --- | --- | --- | --- | --- | --- |
| – | < 500 | COC[C@@H]1N=C(c2ccc(N3CCC4(CC3)CCN(c3ccc(C(=O)N[C@H]5CC[C@H](Oc6ccc(C#N)c(Cl)c6)CC5)nn3)C4)cc2)c2c(sc(C)c2C)-n2c(C)nnc21 [I-566] | – | – | < 500 | < 500 |
| – | < 500 | COCC[C@@H]1N=C(c2ccc(N3CCC4(CC3)CCN(c3ccc(C(=O)N[C@H]5CC[C@H](Oc6ccc(C#N)c(Cl)c6)CC5)nn3)C4)cc2)c2c(sc(C)c2C)-n2c(C)nnc21 [I-567] | – | – | < 500 | < 500 |
| – | 1500 to 3000 | COC[C@@H]1N=C(c2ccc(N3CCC4(CCCN(c5ccc(C(=O)N[C@H]6CC[C@H](Oc7ccc(C#N)c(Cl)c7)CC6)nn5)C4)CC3)cc2)c2c(sc(C)c2C)-n2c(C)nnc21 [I-568] | – | – | < 500 | < 500 |
| – | > 3000 | COCC[C@@H]1N=C(c2ccc(N3CCC4(CCCN(c5ccc(C(=O)N[C@H]6CC[C@H](Oc7ccc(C#N)c(Cl)c7)CC6)nn5)C4)CC3)cc2)c2c(sc(C)c2C)-n2c(C)nnc21 [I-569] | – | – | < 500 | > 3000 |
| – | < 500 | COCC1N=C(c2ccc(C#CC3CC4(C3)CN(c3ccc(C(=O)N[C@H]5CC[C@H](Oc6ccc(C#N)c(Cl)c6)CC5)nn3)C4)cc2)c2c(sc(C)c2C)-n2c(C)nnc21 (stereo partly drawn) [I-570] | – | > 3000 | < 500 | – |
| < 500 | – | COCC1N=C(c2ccc(C#CC3CC4(C3)CN(c3ccc(C(=O)N[C@H]5CC[C@H](Oc6ccc(C#N)c(Cl)c6)CC5)nn3)C4)cc2)c2c(sc(C)c2C)-n2c(C)nnc21 (stereo partly drawn) [I-571] | < 500 | < 500 | – | – |
| – | < 500 | COCC[C@@H]1N=C(c2ccc(C#CC3CC4(C3)CN(c3ccc(C(=O)N[C@H]5CC[C@H](Oc6ccc(C#N)c(Cl)c6)CC5)nn3)C4)cc2)c2c(sc(C)c2C)-n2c(C)nnc21 [I-572] | – | – | < 500 | < 500 |
| – | < 500 | CC[C@@H]1N=C(c2ccc(C3CCC4(CCN(c5ccc(C(=O)N[C@H]6CC[C@H](Oc7ccc(C#N)c(Cl)c7)CC6)nn5)CC4)C3)cc2)c2c(sc(C)c2C)-n2c(C)nnc21 (stereo partly drawn) [I-574] | – | – | < 500 | > 3000 |
| 500 to 1500 | – | Cc1sc2c(c1C)C(c1ccc(CC3CCC4(C3)CN(c3ccc(C(=O)N[C@H]5CC[C@H](Oc6ccc(C#N)c(Cl)c6)CC5)nn3)CCO4)cc1)=N[C@@H](C)c1nnc(C)n1-2 (stereo partly drawn) [I-578] | – | > 3000 | < 500 | – |
| 1500 to 3000 | – | Cc1sc2c(c1C)C(c1ccc(CC3CCC4(C3)CN(c3ccc(C(=O)N[C@H]5CC[C@H](Oc6ccc(C#N)c(Cl)c6)CC5)nn3)CCO4)cc1)=N[C@@H](C)c1nnc(C)n1-2 (stereo partly drawn) [I-579] | < 500 | < 500 | – | – |
| < 500 | – | Cc1sc2c(c1C)C(c1ccc(CC3CCC4(C3)CN(c3ccc(C(=O)N[C@H]5CC[C@H](Oc6ccc(C#N)c(Cl)c6)CC5)nn3)CCO4)cc1)=N[C@@H](C)c1nnc(C)n1-2 (stereo partly drawn) [I-580] | < 500 | < 500 | – | – |
| < 500 | – | Cc1sc2c(c1C)C(c1ccc(CC3CCC4(C3)CN(c3ccc(C(=O)N[C@H]5CC[C@H](Oc6ccc(C#N)c(Cl)c6)CC5)nn3)CCO4)cc1)=N[C@@H](C)c1nnc(C)n1-2 (stereo partly drawn) [I-581] | < 500 | < 500 | – | – |
| – | > 3000 | Cc1sc2c(c1C)C(c1ccc(CC3CCC4(CCCN(c5ccc(C(=O)N[C@H]6CC[C@H](Oc7ccc(C#N)c(Cl)c7)CC6)nn5)C4)C3)cc1)=N[C@@H](C)c1nnc(C)n1-2 (stereo partly drawn) [I-582] | – | < 500 | < 500 | – |
| 1500 to 3000 | – | Cc1sc2c(c1C)C(c1ccc(CC3CCC4(CCCN(c5ccc(C(=O)N[C@H]6CC[C@H](Oc7ccc(C#N)c(Cl)c7)CC6)nn5)C4)C3)cc1)=N[C@@H](C)c1nnc(C)n1-2 (stereo partly drawn) [I-583] | < 500 | < 500 | – | – |
| 1500 to 3000 | – | Cc1sc2c(c1C)C(c1ccc(CC3CCC4(CCCN(c5ccc(C(=O)N[C@H]6CC[C@H](Oc7ccc(C#N)c(Cl)c7)CC6)nn5)C4)C3)cc1)=N[C@@H](C)c1nnc(C)n1-2 (stereo partly drawn) [I-584] | < 500 | < 500 | – | – |
| > 3000 | – | Cc1sc2c(c1C)C(c1ccc(CC3CCC4(CCCN(c5ccc(C(=O)N[C@H]6CC[C@H](Oc7ccc(C#N)c(Cl)c7)CC6)nn5)C4)C3)cc1)=N[C@@H](C)c1nnc(C)n1-2 (stereo partly drawn) [I-585] | < 500 | > 3000 | – | – |
| – | < 500 | Cc1sc2c(c1C)C(c1ccc(N3CCC4(CC3)CCN(c3ccc(C(=O)N[C@H]5CC[C@H](Oc6ccc(C#N)c(Cl)c6)CC5)nn3)C4)cc1)=N[C@H](C)c1nnc(C)n1-2 [I-591] | – | – | < 500 | > 3000 |
